According to article PMC6005341, “Identification of “sarsasapogenin-aglyconed” timosaponins as novel Aβ-lowering modulators of amyloid precursor protein processing” (Chemical Science, 2016):

Tests used:
[1] = test system: Aβ42 production in N2A-APPswe cells; assay: Aβ42 in conditioned medium of N2A-APPswe cells by ELISA, 18 h treatment; assay type: cell-based; conditions: for Aβ42-lowering effect (in words) / decrease in Aβ42: N2A-APPswe cells; for IC50: N2a-APPswe, read-out: IC50 in lowering Aβ42 production, N2A-APPswe cells, mean ± standard deviation, n ≥ 3; for decrease in Aβ42: 18 h
Source text: Sigma-Aldrich Chemical Co. unless otherwise specified. SSG (1) was purchased from Wako Pure Chemical Industries, Ltd. Diosgenin (6), Dioscin (9), Polyphyllin D (10), Timosaponin BI (22) and Timosaponin BII (23) were purchased from Chengdu Must Bio-Technology Co.
Ltd. Yamogenin (7) was bought from Ambinter c/o Greenpharma while Smilagenin (24) was bought from Steraloids Inc. Substances dissolved in DMSO as stock solutions. Cell culture medium constituents were purchased from Life Technologies, Inc.
Cell culture: Neuro-2A cells expressing Swedish mutants of APP (N2A-APPswe provided by Prof. Yifan Han, The Hong Kong Polytechnic University)1 was cultured in minimal essential medium with 2 mM glutamine, 2 mM pyruvate and 10% fetal bovine serum. […]
Aβ ELISA: Aβ concentrations in conditioned medium were assayed using ELISA kits for […]

[2] = Plasma and brain concentrations by LC-MS/MS; assay type: in vivo, mice; conditions: for Plasma Precursor: mice n = 6, three repeated oral doses 100 mg/kg in two days
Method: Animal experiments: Male C57BL/6N mice were housed in environmentally controlled room (temperature: 25 ± 2 °C, humidity: 50 ± 5%, 12-h light-dark cycle) in Laboratory Animal Unit, The University of Hong Kong and were freely access to food and water. TAIII, TAI SSG and compound 34 were dissolved in 5% Tween 80 and given to the mice by oral gavage at three repeated doses of 100 mg/kg in 48 hours. Mice were administrated with 5% Tween 80 (control group), TAIII, TAI SSG and 34. The experimental procedures were performed with the approval of Committee of Use of Live Animal for Teaching and Research of The University of Hong Kong. Blood (about 600-800 µL) was collected by cardiac puncture and added with 1/10 volume of Na2EDTA (20 mg/mL) to prevent coagulation. After centrifugation at 3000 g for 15 min at 4 °C, plasma was transferred to a centrifuge tube. The brain was dissected into two hemispheres on ice, weighed and frozen in liquid nitrogen immediately. The left brain was homogenized with 1 mL of buffer containing 5 M guanidine HCl, 50 mM Tris HCl, pH 8.0, with protease inhibitor cocktail and AEBSF using a Polytron and the homogenates were allowed to stand at room temperature for 3h. Both plasma and brain samples were stored at -80 °C until they were analyzed. […]
B. Determination of timosaponin levels in mice plasma and brain by ultra-high pressure liquid chromatography tandem mass spectrometry
The UPLC-ESI-QTOF consists of a Waters Q-TOF PremierTM mass spectrometer (Micromass MS Technologies, Manchester, UK) operated in positive ion mode and a Waters ACQUITY TM UPLC system. The mass spectrometer conditions were optimized as follows: source […]
temperature, 120 °C; desolvation temperature, 500 °C; nebulization gas flow rate, 1000 L/h; cone gas flow rate, 20 L/h; capillary voltage, 2.5 kV; sampling cone voltage, 28V. The data were collected into two separate data channels with the instrument spending 0.5 s on data acquisition for each channel and a 0.1 s inter-channel delay. The mass spectrometer was calibrated by using the solution of sodium formate (0.5 mM) and the TOF scan range was from 100 to 1000 Da. In order to improve mass measurement accuracy a lock mass compound (50 pg µL−1 solution of leucine encephalin; m/z 556.2771) was continuously infused at a 0.5 mL min-1 using the built-in syringe pump of the instrument.
Sample was loaded into a Waters ACQUITY TM BEH C18 column (100 × 2.1 mm i.d., 1.7 µM) connected to a Waters ACQUITY TM BEH C18 guard column (5 × 2.1 mm i.d., 1.7 µM). The gradient elution system consisted of 0.1% formic acid in water (A) and 0.1% formic acid in acetonitrile (B). Separation was achieved by using: 30%-55% B from 0 to 3 min; 55-100% B from 3 to 6 min; 100% B from 6 to 12 min and returned to initial conditions and equilibrated for 3 minutes. The flow rate was 0.3 mL/min and the injection volume was 5 µL.
Standard preparation and sample preparation
Stock solution (10 µM ) of each analyte was prepared by dissolving in methanol. They were subject to serial dilution to give calibration curves of SSG 1 (plasma: y = 8.7485× - 0.0676; […]
each concentration of each analyte was transferred to a centrifuge tube and evaporated to dryness by a concentrator. Dioscin (20 µL , 10 µM) was added as an internal standard followed by methanol (130 µL) and control plasma (50 µL). The mixture was vortexed for 5 s and centrifuged (15000 × g) for 15 min. The supernatant was collected and evaporated to dryness by a concentrator. Methanol (100 µL) was added and then vortexed again for 10 s and centrifuged (15000 × g) for 20 min. The supernatant (5 µL) was subject to LC-MS/MS analysis. Analyte-treated plasma, control brain and analyte-treated brain were prepared in a […]
The acquisition and processing of data were performed by Masslynx (version 4.1) software.
Mass window of ±10 mDa and mass resolution of 9000 were set for both molecular ions and product ions. MS full scan was applied to acquire high abundant molecular ions [M+H]+ with […]

[3] = mice n = 6, three oral doses 100 mg/kg in two days
[4] = any metabolite, mice n = 6, three oral doses 100 mg/kg in two days

SMILES | Aβ42-lowering effect (in words) [1] | IC50 [1] [µM] | Brain Precursor [2, 3] | Plasma Precursor [2] [µM] | decrease in Aβ42 ([1]; 50 μM) [%] | decrease in Aβ42 ([1]; 100 μM) [%] | Brain Metabolite [2, 4] | Plasma Metabolite [2, 4]
C[C@H]1CC[C@@]2(OC1)O[C@H]1C[C@H]3[C@@H]4CC[C@@H]5C[C@@H](O[C@@H]6O[C@H](CO)[C@H](O)[C@H](O)[C@H]6O)CC[C@]5(C)[C@H]4CC[C@]3(C)[C@H]1[C@@H]2C [TAI (3), timosaponin A I] | effectively lowered | ~6.1 | 1.174 ± 0.401 µM | 3.361 ± 0.925 | – | – | – | –
C[C@H]1CC[C@@]2(OC1)O[C@H]1C[C@H]3[C@@H]4CC[C@@H]5C[C@@H](O[C@@H]6O[C@H](CO)[C@H](O)[C@H](O)[C@H]6O[C@@H]6O[C@H](CO)[C@@H](O)[C@H](O)[C@H]6O)CC[C@]5(C)[C@H]4CC[C@]3(C)[C@H]1[C@@H]2C [TAIII (2), timosaponin A III] | effectively lowered | ~2.3 | Not detected | 0.050 ± 0.058 | – | – | – | –
C[C@H]1CC[C@@]2(OC1)O[C@H]1C[C@H]3[C@@H]4CC[C@@H]5C[C@@H](O)CC[C@]5(C)[C@H]4CC[C@]3(C)[C@H]1[C@@H]2C [SSG (1), sarsasapogenin] | – | 53 ± 9 | 1.042 ± 0.418 µM | 0.118 ± 0.062 | 55 | 40 | Not detected | Not detected
